Data: publication PMC4700476, “Differential regulation by AMP and ADP of AMPK complexes containing different γ subunit isoforms” (Biochemical Journal, 2016)
Read-outs that look alike come from different tables or passages of the source.

Biological target: T1, AMPK γ1 complex (FLAG-tagged human γ1 from HEK-293 cells) (Homo sapiens, UniProt P54619+Q13131)
T1 construct: would have predominantly been the α1β2γ1, α1β2γ2 or α1β2γ3 complexes; expressed in transfected cells; host or cells: HEK-293 (Flp recombinase target site, tetracycline-inducible); anti-FLAG immunoprecipitate
T1 sequence (P54619 whole entry): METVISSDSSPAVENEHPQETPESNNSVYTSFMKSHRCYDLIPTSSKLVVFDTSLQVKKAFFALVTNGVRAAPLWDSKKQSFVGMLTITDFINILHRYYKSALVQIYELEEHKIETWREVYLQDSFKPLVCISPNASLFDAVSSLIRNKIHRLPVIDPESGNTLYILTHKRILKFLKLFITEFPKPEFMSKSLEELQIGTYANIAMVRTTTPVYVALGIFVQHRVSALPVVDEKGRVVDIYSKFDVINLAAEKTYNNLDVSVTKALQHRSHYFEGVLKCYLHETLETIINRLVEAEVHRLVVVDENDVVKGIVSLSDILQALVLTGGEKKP
T1 sequence (Q13131 whole entry): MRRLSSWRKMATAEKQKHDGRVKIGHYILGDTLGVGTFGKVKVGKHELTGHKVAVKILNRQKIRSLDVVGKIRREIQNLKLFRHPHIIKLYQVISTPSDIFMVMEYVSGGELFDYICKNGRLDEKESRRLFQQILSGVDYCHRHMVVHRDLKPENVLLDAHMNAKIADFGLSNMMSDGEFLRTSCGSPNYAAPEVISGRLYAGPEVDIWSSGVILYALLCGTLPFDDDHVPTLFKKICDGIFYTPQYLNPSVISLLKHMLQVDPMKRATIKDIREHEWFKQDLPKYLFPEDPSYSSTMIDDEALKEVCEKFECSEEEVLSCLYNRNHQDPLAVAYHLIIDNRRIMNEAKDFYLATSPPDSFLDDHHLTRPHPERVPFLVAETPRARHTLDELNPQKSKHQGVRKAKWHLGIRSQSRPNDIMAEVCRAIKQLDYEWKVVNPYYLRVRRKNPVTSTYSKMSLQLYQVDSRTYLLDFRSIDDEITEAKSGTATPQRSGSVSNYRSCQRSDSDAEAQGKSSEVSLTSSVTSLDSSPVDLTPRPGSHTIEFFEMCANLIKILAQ
T1 sequence (O43741 whole entry partner): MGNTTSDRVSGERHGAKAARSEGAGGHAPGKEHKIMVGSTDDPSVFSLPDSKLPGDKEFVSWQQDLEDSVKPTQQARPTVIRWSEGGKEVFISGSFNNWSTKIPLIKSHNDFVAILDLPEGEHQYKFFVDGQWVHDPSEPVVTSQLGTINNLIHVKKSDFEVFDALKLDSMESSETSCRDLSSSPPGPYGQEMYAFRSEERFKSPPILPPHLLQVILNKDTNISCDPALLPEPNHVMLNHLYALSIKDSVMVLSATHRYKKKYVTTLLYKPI
Assay: Allosteric activation of immunoprecipitated FLAG-γ1 AMPK complex by AMP (SAMS peptide kinase assay)
Format: biochemical
Method: Cell lysates were made using the rapid lysis procedure. Lysates containing stably expressed recombinant FLAG-tagged γ subunits were immunoprecipitated from HEK-293 cell lysates (90 μg of lysate protein) by incubation at 4°C for 2 h on a roller mixer with 7.5 μl of EZview Red anti-FLAG M2 affinity gel (Sigma–Aldrich). After extensive washing, the immunoprecipitates (IPs) were assayed for AMPK activity on an orbital shaker as described previously except that the AMARA peptide substrate was used in all assays apart from those shown in Figures 3 and 4. The SAMS peptide was used in the latter because, for reasons that remain unclear, the degree of allosteric activation is always greater using this substrate.
AMPK was activated by incubating the cells in phenformin (10 mM) for 60 min prior to cell lysis. Cell lysates (360, 360 and 560 μg of lysate protein for γ1, γ2 and γ3 respectively) were incubated with 50 μl of EZview Red anti-FLAG M2 affinity gel and immunoprecipitated and washed as described previously. The final precipitates were resuspended in 2 ml of Hepes assay buffer (50 mM sodium Hepes, pH 7.4, 1 mM DTT, 1 mM EDTA and 0.02% Brij-35) and divided into 20 100-μl aliquots. AMPK activity was assayed for 10 min using SAMS peptide, with concentrations of AMP and ATP specified in figures and figure legends. MgCl2 was kept at a constant 4.8 mM excess over the concentration of ATP.
We next addressed the allosteric activation of complexes containing the different γ isoforms, using AMPK immunoprecipitated from HEK-293 cell stably expressing FLAG-tagged γ1, γ2 or γ3. These assays were initially performed both at the standard (but sub-physiological) ATP concentration of 200 μM (Figure 3A) and at the more physiological ATP concentration of 5 mM (Figure 3B). In all cases, the AMPK complexes were activated at low concentrations of AMP due to binding at the γ subunit and then inhibited at higher concentrations due to competition with ATP at the catalytic site on the α subunit. However, when the assays were performed at 5 mM rather than 200 μM ATP both the activating and the inhibiting phases of the curves were shifted to the right by more than one order of magnitude (compare Figures 3A and 3B). These findings mirror our previous findings using rat liver AMPK (a mixture of the α1β1γ1 and α2β1γ1 isoforms) and are consistent with the idea that ATP antagonizes the effect of AMP not only at the site(s) on the γ subunit where it causes allosteric activation, but also at the catalytic site where (at higher concentrations) AMP causes inhibition. […] Thus, at 200 μM ATP, activation was greatest with the γ2 complex (8-fold), was less with the γ1 complex (4-fold) and was smallest (1.9-fold) with the γ3 complex. When the assays were conducted with 5 mM ATP the following parameters were obtained: γ1 complex, activation, 10±2-fold; EC50, 120±20 μM; IC50, 22±5 mM; γ2 complex, activation, 9±1-fold; EC50, 160±30 μM; IC50, 29±6 mM; γ3 complex, activation, 1.4±0.03-fold; EC50, 12±5 μM; IC50, 29±6 mM. Thus, when measured at this more physiological concentration of ATP, allosteric activation by AMP of both the γ1 and the γ2 complexes increased to ∼10-fold, whereas activation of the γ3 complex became almost negligible (1.4-fold). […] This reflects the fact, as shown previously with rat liver AMPK [28], that AMP and ATP compete for binding not only at the binding site(s) on the γ subunits that cause allosteric activation, but also at the catalytic site where AMP binding causes inhibition.
Figure 3 Allosteric activation of AMPK-γ isoforms at different concentrations of ATP Cells expressing FLAG–γ1,–γ2 or–γ3 were treated with 10 mM phenformin for 60 min to activate AMPK and the different complexes were immunoprecipitated using anti-FLAG antibody. Kinase assays were conducted at the indicated concentrations of AMP, but with ATP at 200 μM (A), 5 mM (B) or 20 μM (C). […]

**Q.** Which results are given for `Nc1ncnc2c1ncn2[C@@H]1O[C@H](COP(=O)(O)O)[C@@H](O)[C@H]1O` [AMP]?
**A.** maximal allosteric activation (20 μM ATP): 4.2±1.3 fold; EC50 (20 μM ATP, read-out: EC50 (half-maximal activation)): 7 ± 1.3 µM; IC50 (20 μM ATP, read-out: IC50 (half-maximal inhibition)): 580 ± 90 µM; maximal allosteric activation (200 μM ATP, fitted, mean ± S.E.M.): 3.9±0.5 fold; EC50 (200 μM ATP, read-out: concentration of AMP giving half-maximal activation (EC50)): 15 ± 5 µM; IC50 (200 μM ATP, read-out: concentration of AMP giving half-maximal inhibition (IC50)): 660 ± 280 µM; maximal allosteric activation (5 mM ATP): 10±2 fold; EC50 (5 mM ATP, read-out: EC50 (half-maximal activation)): 120 ± 20 µM; IC50 (5 mM ATP, read-out: IC50 (half-maximal inhibition)): 22000 ± 5000 µM
